From paper PMC11313072, “Copper(II) and Zinc(II) Complexes with Bacterial Prodigiosin Are Targeting Site III of Bovine Serum Albumin and Acting as DNA Minor Groove Binders” (International Journal of Molecular Sciences, 2024)
Each block holds one molecule with its values, some of them ahead of it.

Molecular target: T1, bovine serum albumin (BSA) (Bos taurus, UniProt P02769)
T1 construct: gene ALB; commercial native full-length BSA (Sigma-Aldrich), mature secreted protein
Assay: tryptophan fluorescence quenching
Format: binding
Conditions: PBS pH 7.4, BSA 5 μM, excitation 280 nm, no site marker, double-log
Excerpt: tryptophan fluorescence quenching on bovine serum albumin (BSA)

T1 sequence (P02769 25-607): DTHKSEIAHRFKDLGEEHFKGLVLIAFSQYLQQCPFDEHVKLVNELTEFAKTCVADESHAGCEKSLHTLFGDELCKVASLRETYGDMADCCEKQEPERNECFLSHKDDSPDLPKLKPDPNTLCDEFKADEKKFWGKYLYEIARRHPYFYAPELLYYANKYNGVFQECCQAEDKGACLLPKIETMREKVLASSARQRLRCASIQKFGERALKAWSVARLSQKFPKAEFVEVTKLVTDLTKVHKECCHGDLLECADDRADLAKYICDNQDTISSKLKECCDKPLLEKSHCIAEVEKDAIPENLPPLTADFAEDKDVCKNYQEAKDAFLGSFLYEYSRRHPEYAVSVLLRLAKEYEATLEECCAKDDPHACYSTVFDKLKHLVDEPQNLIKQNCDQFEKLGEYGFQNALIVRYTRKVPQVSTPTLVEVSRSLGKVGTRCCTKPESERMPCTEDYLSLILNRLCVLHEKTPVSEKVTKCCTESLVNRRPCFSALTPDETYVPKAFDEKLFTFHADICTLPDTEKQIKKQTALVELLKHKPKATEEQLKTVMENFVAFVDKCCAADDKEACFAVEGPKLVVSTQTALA

Molecule: CCCCCC1=C/C(=C/c2[nH]c(-c3ccc[nH]3)cc2OC)N=C1C [PG, prodigiosin]
- KA (n = 0.97): 5770 M⁻¹

- KA (n = 1.41): 805000 M⁻¹
Molecule: CuPG

- KA (n = 1.07): 7140 M⁻¹
Molecule: ZnPG
